biological target: T1, human GIVA cPLA2 (Homo sapiens, UniProt P47712); assay: In vitro mixed micelle assay, GIVA cPLA2; format: biochemical; conditions: mixed micelle assay, comment on Table 6
T1 sequence (P47712 1-749): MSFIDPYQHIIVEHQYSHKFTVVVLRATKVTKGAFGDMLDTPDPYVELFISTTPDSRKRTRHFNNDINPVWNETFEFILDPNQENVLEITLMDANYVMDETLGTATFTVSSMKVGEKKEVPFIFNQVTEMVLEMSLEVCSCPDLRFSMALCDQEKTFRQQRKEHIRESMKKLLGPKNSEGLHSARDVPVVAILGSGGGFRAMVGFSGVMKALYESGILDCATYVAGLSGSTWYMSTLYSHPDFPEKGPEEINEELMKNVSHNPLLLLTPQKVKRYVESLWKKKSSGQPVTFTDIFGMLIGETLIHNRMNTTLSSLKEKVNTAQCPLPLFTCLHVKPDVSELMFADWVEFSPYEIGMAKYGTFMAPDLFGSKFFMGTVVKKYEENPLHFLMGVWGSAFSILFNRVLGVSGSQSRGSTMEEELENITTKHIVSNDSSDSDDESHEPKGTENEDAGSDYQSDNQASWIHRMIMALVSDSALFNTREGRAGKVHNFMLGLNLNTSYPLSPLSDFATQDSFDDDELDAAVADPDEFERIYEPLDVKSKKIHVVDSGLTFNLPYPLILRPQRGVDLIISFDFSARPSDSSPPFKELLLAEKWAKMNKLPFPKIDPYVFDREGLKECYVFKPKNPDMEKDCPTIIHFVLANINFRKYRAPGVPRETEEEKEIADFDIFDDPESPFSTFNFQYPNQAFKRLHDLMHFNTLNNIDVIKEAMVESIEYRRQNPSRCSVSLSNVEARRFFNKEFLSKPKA
Procedure: (§1) At first, the percent of inhibition for each PLA2 enzyme at 0.091 mole fraction of each inhibitor was determined. […] The XI(50) is the mole fraction of the inhibitor in the total substrate interface required to inhibit the enzyme activity by 50%. […] (ii) GVI iPLA2 substrate mixed-micelles were composed of 400 μM Triton X-100, 98.3 μM PAPC, and 1.7 μM ^14C-labeled PAPC in buffer containing 100 mM HEPES, pH 7.5, 2 mM ATP, and 4 mM DTT; (iii) GV sPLA2 substrate mixed-micelles were composed of 400 μM Triton X-100, 98.3 μM PAPC, and 1.7 μM ^14C-labeled PAPC in buffer containing 50 mMTris, pH 8.0, and 5 mM […] CaCl2.

Row | SMILES | inhibition of GIVA cPLA2 (in words)
1 | CCCCCCCCc1ccc(OCC(=O)c2nccs2)cc1 [Compound T, 2-(4-Octylphenoxy)-1-(thiazol-2-yl)ethanone] | significant inhibitory activity
2 | CCCCCCCCCCCCOCC(=O)c1nc(CC(=O)OCC)cs1 [Compound X, Ethyl 2-(2-(2-(dodecyloxy)acetyl)thiazol-4-yl)acetate] | proved inactive
3 | CCCCCCCCc1ccc(OCC(=O)c2nc(CC(=O)OCC)cs2)cc1 [Compound Y, Ethyl 2-(2-(2-(4-octylphenoxy)acetyl)thiazol-4-yl)acetate] | dramatic loss of the activity

same assay, conditions: mixed micelles; 0.091 mole fraction of inhibitor; Table 6; read-out: GIVA cPLA2 % Inhib

Row | SMILES | inhibition at 0.091 mole fraction
4 | CCCCCCCCc1ccc(OCC(=O)c2nccs2)cc1 [Compound T, 2-(4-Octylphenoxy)-1-(thiazol-2-yl)ethanone] | > 90%
5 | CCCCCCCCCCCCOCC(=O)c1nc(C(=O)OCC)cs1 [Compound W, Ethyl 2-(2-(dodecyloxy)acetyl)thiazole-4-carboxylate] | 48%
6 | CCCCCCCCCCCCOCC(=O)c1nc(CC(=O)OCC)cs1 [Compound X, Ethyl 2-(2-(2-(dodecyloxy)acetyl)thiazol-4-yl)acetate] | 49%
7 | CCCCCCCCc1ccc(OCC(=O)c2nc(CC(=O)OCC)cs2)cc1 [Compound Y, Ethyl 2-(2-(2-(4-octylphenoxy)acetyl)thiazol-4-yl)acetate] | 64%

same assay, conditions: mixed micelles; mole fraction of inhibitor for 50% inhibition; Table 6

Row | SMILES | GIVA cPLA2 XI(50)
8 | CCCCCCCCc1ccc(OCC(=O)c2nccs2)cc1 [Compound T, 2-(4-Octylphenoxy)-1-(thiazol-2-yl)ethanone] | 0.02 ± 0.007 mole fraction

biological target: T2, human GV sPLA2 (Homo sapiens, UniProt P39877); assay: In vitro mixed micelle assay, GV sPLA2; format: biochemical; conditions: mixed micelles; 0.091 mole fraction of inhibitor; Table 6; read-out: GV sPLA2 % Inhib
T2 sequence (P39877 21-138): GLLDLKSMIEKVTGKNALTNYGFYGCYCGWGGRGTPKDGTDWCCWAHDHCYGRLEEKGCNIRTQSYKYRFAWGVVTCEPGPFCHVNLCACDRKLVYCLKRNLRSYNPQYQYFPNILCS
Procedure: as §1

Row | SMILES | inhibition at 0.091 mole fraction
9 | CCCCCCCCc1ccc(OCC(=O)c2nccs2)cc1 [Compound T, 2-(4-Octylphenoxy)-1-(thiazol-2-yl)ethanone] | 46%
10 | CCCCCCCCCCCCOCC(=O)c1nc(C(=O)OCC)cs1 [Compound W, Ethyl 2-(2-(dodecyloxy)acetyl)thiazole-4-carboxylate] | 48%
11 | CCCCCCCCCCCCOCC(=O)c1nc(CC(=O)OCC)cs1 [Compound X, Ethyl 2-(2-(2-(dodecyloxy)acetyl)thiazol-4-yl)acetate] | 55%
12 | CCCCCCCCc1ccc(OCC(=O)c2nc(CC(=O)OCC)cs2)cc1 [Compound Y, Ethyl 2-(2-(2-(4-octylphenoxy)acetyl)thiazol-4-yl)acetate] | 50%

test system: AA release in SW982 cells; assay: Ex vivo cellular arachidonic acid (AA) release assay, IL-1β stimulated; format: cell-based, human; conditions: Homo sapiens; SW982 synoviocytes; 4 h IL-1β stimulation; % inhibition at 10 pM oxothiazole (so in the source); read-out: AA release % Inhib
Procedure: (§2) The effect of the oxothiazoles synthesized on the release of AA and OA in synoviocytes was evaluated as previously described.^54 The percent inhibition of AA and OA was determined at a 10 μM inhibitor concentration, while for the determination of the IC50 value the inhibitors were tested in a 0-20 μM range after IL-1β stimulation for 4 h.
(§3) The human synovial sarcoma cell line SW982 was from ATCC (UK) and was used as a model system to monitor AA/OA release and activation of GIVA cPLA2. SW982 cells were passaged bi-weekly by routine trypsin detachment and kept in a sub-confluent state. The cells were maintained in Dulbecco's Modified Eagle Medium (DMEM) supplemented with 10% FBS, 0.1 mg/mL gentamicin and 0.3 mg/mL L-glutamine at 37° C. with 10% CO2. For AA release, 5*10^5 cells were seeded pr well in a 48-well per plate format. Experiments were performed at 3 days post-confluency following overnight serum deprivation in serum-free DMEM to ensure differentiation and synchronization of the cells.
(§4) AA and OA release was analyzed as previously described.^54 At 2 days post-confluency, SW982 cells were serum-starved and labelled overnight with ^3H-AA (0.4 μCi/ml) and ^14C-OA (0.067 μCi/ml) in serum-free DMEM. Prior to the addition of oxothiazoles, the cells were washed twice with PBS containing fBSA (2 mg/ml) and PBS in order to remove unincorporated radioactivity. Cells were pretreated (1 h) with oxothiazoles prior to IL-1β stimulation (10 ng/mL, 4 h). Following IL-1β stimulation, the supernatants were cleared of detached cells by centrifugation (13000 rpm, 5 min). The release of ^3H-AA and ^14C-OA from the cells was assessed by liquid scintillation counting (LS 6500 Multi-Purpose Scintillation Counter, Beckman Coulter, Inc (USA). Adherent cells were dissolved in 1N NaOH in order to determine incorporated ^3H-AA and ^14C-OA in the cells by liquid scintillation counting. In all experiments, DMSO was included for vehicle control ([…]0.05%).
(§5) Following treatments, cells were routinely observed by microscopy to ensure unaltered cell morphology, integrity and viability. The results are given as inhibition of released ^3H-AA and ^14C-OA in the supernatants relative to total ^3H-AA and ^14C-OA incorporated into the cells, from at least three independent experiments performed in triplicates.

Row | SMILES | inhibition
13 | CCCCCCCCc1ccc(OCC(=O)c2nccs2)cc1 [Compound T, 2-(4-Octylphenoxy)-1-(thiazol-2-yl)ethanone] | > 90%
14 | CCCCCCCCCCCCOCC(=O)c1nc(C(=O)OCC)cs1 [Compound W, Ethyl 2-(2-(dodecyloxy)acetyl)thiazole-4-carboxylate] | 9%
15 | CCCCCCCCCCCCOCC(=O)c1nc(CC(=O)OCC)cs1 [Compound X, Ethyl 2-(2-(2-(dodecyloxy)acetyl)thiazol-4-yl)acetate] | 0%
16 | CCCCCCCCc1ccc(OCC(=O)c2nc(CC(=O)OCC)cs2)cc1 [Compound Y, Ethyl 2-(2-(2-(4-octylphenoxy)acetyl)thiazol-4-yl)acetate] | 71%

same assay, conditions: Homo sapiens; SW982 synoviocytes; tested in 0-20 μM range; 4 h IL-1β stimulation; read-out: AA release IC50

Row | SMILES | IC50
17 | CCCCCCCCc1ccc(OCC(=O)c2nccs2)cc1 [Compound T, 2-(4-Octylphenoxy)-1-(thiazol-2-yl)ethanone] | 3.6 µM
18 | CCCCCCCCCCCCOCC(=O)c1nc(C(=O)OCC)cs1 [Compound W, Ethyl 2-(2-(dodecyloxy)acetyl)thiazole-4-carboxylate] | > 20 µM
19 | CCCCCCCCc1ccc(OCC(=O)c2nc(CC(=O)OCC)cs2)cc1 [Compound Y, Ethyl 2-(2-(2-(4-octylphenoxy)acetyl)thiazol-4-yl)acetate] | 5 µM

same assay, conditions: SW982 synoviocytes

Row | SMILES | inhibition of the AA release (in words)
20 | CCCCCCCCc1ccc(OCC(=O)c2nccs2)cc1 [Compound T, 2-(4-Octylphenoxy)-1-(thiazol-2-yl)ethanone] | interesting inhibition
21 | CCCCCCCCCCCCOCC(=O)c1nc(C(=O)OCC)cs1 [Compound W, Ethyl 2-(2-(dodecyloxy)acetyl)thiazole-4-carboxylate] | interesting inhibition
22 | CCCCCCCCCCCCOCC(=O)c1nc(CC(=O)OCC)cs1 [Compound X, Ethyl 2-(2-(2-(dodecyloxy)acetyl)thiazol-4-yl)acetate] | interesting inhibition

test system: OA release in SW982 cells; assay: Ex vivo cellular oleic acid (OA) release assay, IL-1β stimulated; format: cell-based; conditions: Homo sapiens; SW982 synoviocytes; 4 h IL-1β stimulation; % inhibition at 10 pM oxothiazole (so in the source); read-out: OA release % Inhib
Procedure: as §2, §3, §4, §5

Row | SMILES | inhibition at 10 µM
23 | CCCCCCCCc1ccc(OCC(=O)c2nccs2)cc1 [Compound T, 2-(4-Octylphenoxy)-1-(thiazol-2-yl)ethanone] | 0%
24 | CCCCCCCCCCCCOCC(=O)c1nc(C(=O)OCC)cs1 [Compound W, Ethyl 2-(2-(dodecyloxy)acetyl)thiazole-4-carboxylate] | 0%
25 | CCCCCCCCCCCCOCC(=O)c1nc(CC(=O)OCC)cs1 [Compound X, Ethyl 2-(2-(2-(dodecyloxy)acetyl)thiazol-4-yl)acetate] | 0%
26 | CCCCCCCCc1ccc(OCC(=O)c2nc(CC(=O)OCC)cs2)cc1 [Compound Y, Ethyl 2-(2-(2-(4-octylphenoxy)acetyl)thiazol-4-yl)acetate] | 20%
